What was measured:
[1] = target: extracellular domains of PD-L1 (Homo sapiens (Human), UniProt Q9NZQ7); assay: PD-L1 dimerization (biochemical protein-protein interaction assay); conditions: PDL1-Eu and PDL1-A2, 25° C., 120 min
Method: Compounds were tested in biochemical protein-protein interaction assays to determine if they can specifically dimerize the extracellular domains of PD-L1. • (1) Dilute cpd 1:3 in succession in DMSO for each column for 10±0 pts (refer to dilution plate map) • (2) Transfer 0.2 μL cpds solution in each row to 384 assay plate using Echo, each column containing 2 replicates (refer to assay plate map). • (3) Add 20 μL prepared mixture include PDL1-Eu and PDL1-A2 solution to assay plate, centrifuge at 1000 rpm for 1 min. • (4) Incubate at 25° C. for 120 min. • (5) Read fluorescence signal on Envision 2104 plate reader. • (6) Read the Ratio (665 nm/615 nm) signal on Envision. • (7) Analyze the raw data using the equation (V. Data analysis)

PD-1/PD-L1 = PD-1/PD-L1 (Homo sapiens (Human), UniProt Q9NZQ7); assay: PD-1/PD-L1 Homogeneous Time-Resolved Fluorescence (HTRF) binding assay; conditions: 3 nM PD1, 10 nM PD-L1, 25° C., PBS pH 7.4
Method: PD-1/PD-L1 Homogeneous Time-Resolved Fluorescence (HTRF) Binding Assay
The assays were conducted in a standard black 384-well polystyrene plate with a final volume of 20 μL. Inhibitors were first serially diluted in DMSO and then added to the plate wells before the addition of other reaction components. The final concentration of DMSO in the assay was 1%. The assays were carried out at 25° C. in the PBS buffer (pH 7.4) with 0.05% Tween-20 and 0.1% BSA. Recombinant human PD-L1 protein (19-238) with a Histag at the C-terminus was purchased from AcroBiosystems (PD1-H5229). Recombinant human PD-1 protein (25-167) with Fe tag at the C-terminus was also purchased from AcroBiosystems (PD1-H5257). PD-L1 and PD-1 proteins were diluted in the assay buffer and 10 μL was added to the plate well. Plates were centrifuged and proteins were preincubated with inhibitors for 40 minutes. The incubation was followed by the addition of 10 μL of HTRF detection buffer supplemented with Europium cryptate-labeled anti-human IgG (PerkinElmer-AD0212) specific for Fe and anti-His antibody conjugated to SureLight®-Allophycocyanin (APC, PerkinElmer-AD0059H). After centrifugation, the plate was incubated at 25° C. for 60 min. before reading on a PHERAstar FS plate reader (665 nm/620 nm ratio). Final concentrations in the assay were—3 nM PD1, 10 nM PD-L1, 1 nM europium anti-human IgG and 20 nM anti-His-Allophycocyanin. IC50 determination was performed by fitting the curve of percent control activity versus the log of the inhibitor concentration.

PD-L1/CHO-K1 cells = PD-L1/CHO-K1 cells (Homo sapiens (Human), UniProt Q9NZQ7); assay: PD-L1 internalization (FACS, PD-L1/CHO-K1 cells); assay type: cell-based; conditions: % activation of PD-L1 internalization = 1 − PD-L1 signal; 17 hours incubation
Method: Day 1. Seeding cells: Digest the PD-L1/CHO-K1 cells by trypsin in the flask, then counting the cell number and diluted to 1×10^5 cells/ml. Seeding cells to 6 well plate (Corning, #3516), 2 mL/well. The plates were incubated at 37° C., […] incubator for 24 hours.
Day 2. Preparing compounds and treated cells: Dilute GLC01-258 from 15 mM to 0.5 mM by using DMSO, and 15 mM compound were serial diluted from 15 mM˜15 nM by DMSO, Then 500 times dilute the compounds by using assay buffer. Prepare 0.2% DMSO in assay buffer used for Vehicle control and low control. Take out the plates, aspirated the medium and thrown away. Adding 2 mL of the diluted compounds, vehicle control and low control to corresponding wells. Then incubated the plates for 17 hours at 37° C., 5% CO2 incubator.
Day 3. Preparing samples for FACS: After 17 hours incubation, discarded medium and washed by the PBS. Cells in each well were Digested by trypsin. Centrifuge and discard the supernatant, then wash the cells by DPBS (Ca^2+, Mg^2+ free) for twice. 10 fold dilute the antibody (PE-conjugated mouse anti-human CD274) by DPBS, then adding the staining solution to compounds treated samples and vehicle control sample. The low control only add DPBS without antibody. Incubate the plates at room temperature for 20 minutes and protect from light. After 20 minutes, wash the samples by DPBS for twice. Then centrifuge and discard the supernatant. Resuspend cells by 300 uL DPBS and transfer the samples to 5 mL Polystryrene Round-Bottom Tube (Falcon, #352054), then tested by BD FACSCanto. […].
Set the PD-L1 signal of vehicle control as 100%, PD-L1 signal of Low control as 0%. Then calculate the compound treated samples' PD-L1 signal
0% PD-L1 signal: Low control which stained without anti-CD274
100% PD-L1 Signal: vehicle control which stained with anti-CD274
The % activation of PD-L1 Internalization=1−PD-L1 signal of compound.

extracellular domains of PD-L1, sequence (Q9NZQ7 19-238): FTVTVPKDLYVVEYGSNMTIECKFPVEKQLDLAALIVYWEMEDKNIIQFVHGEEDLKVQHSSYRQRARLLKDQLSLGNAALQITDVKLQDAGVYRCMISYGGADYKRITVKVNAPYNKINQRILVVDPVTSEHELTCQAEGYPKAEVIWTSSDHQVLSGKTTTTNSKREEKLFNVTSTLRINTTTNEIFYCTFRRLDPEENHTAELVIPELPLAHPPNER
PD-1/PD-L1, sequence (Q9NZQ7 19-238): as above
PD-L1/CHO-K1 cells, sequence (Q9NZQ7 19-290): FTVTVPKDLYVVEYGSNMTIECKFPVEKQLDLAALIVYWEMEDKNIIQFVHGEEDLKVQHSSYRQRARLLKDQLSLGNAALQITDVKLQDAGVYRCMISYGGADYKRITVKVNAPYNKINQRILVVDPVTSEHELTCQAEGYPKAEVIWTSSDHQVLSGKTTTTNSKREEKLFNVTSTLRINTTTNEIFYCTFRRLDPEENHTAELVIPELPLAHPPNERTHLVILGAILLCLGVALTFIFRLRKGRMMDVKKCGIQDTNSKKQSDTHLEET

EC50 [1] [nM]	IC50 (PD-1/PD-L1) [nM]	Internalization (PD-L1/CHO-K1 cells) [%]	SMILES
154	7.35	2.00	COC[C@H](NCCN1C(=O)COc2cc(-c3cccc(-c4cccc(-c5ccc6c(c5)OCC(=O)N6CCN[C@@H](COC)C(=O)O)c4Cl)c3Cl)ccc21)C(=O)O [Compound 588]
130	10.9	39.00	Cc1c(-c2ccc3c(c2)OCC(=O)N3CCN[C@@H](CO)C(=O)O)cccc1-c1cccc(-c2ccc3c(c2)OCC(=O)N3CCN[C@@H](CO)C(=O)O)c1C [Compound 585]
225	3.96	3.00	C[C@@H](CN1C(=O)COc2cc(-c3cccc(-c4cccc(-c5ccc6c(c5)OCC(=O)N6C[C@H](C)N[C@@H](CO)C(=O)O)c4Cl)c3Cl)ccc21)N[C@@H](CO)C(=O)O [Compound 550]
–	2.64	3.10	C[C@H](O)[C@@H](NCCN1C(=O)COc2cc(-c3cccc(-c4cccc(-c5ccc6c(c5)OCC(=O)N6CCN[C@@H](C(=O)O)[C@H](C)O)c4Cl)c3Cl)ccc21)C(=O)O [Compound 551]
354	4.41	21.00	C[C@H]1CC[C@@H](CN2C(=O)COc3cc(-c4cccc(-c5cccc(-c6ccc7c(c6)OCC(=O)N7C[C@@H]6CC[C@H](C)N6)c5Cl)c4Cl)ccc32)N1 [Compound 535]
–	7.25	4.90	O=C(O)[C@@H](CCO)NCCN1C(=O)COc2cc(-c3cccc(-c4cccc(-c5ccc6c(c5)OCC(=O)N6CCN[C@H](CCO)C(=O)O)c4Cl)c3Cl)ccc21 [Compound 552]
37.7	7.18	25.50	C[C@H](CN1C(=O)COc2cc(-c3cccc(-c4cccc(-c5ccc6c(c5)OCC(=O)N6C[C@@H](C)N[C@@H](CO)C(=O)O)c4Cl)c3Cl)ccc21)N[C@@H](CO)C(=O)O [Compound 563, (2S,2'S)-2,2′-(((2R,2′R)-((2,2′-dichloro-[1,1′-biphenyl]-3,3′-diyl)bis(3-oxo-2,3-dihydro-4H-benzo[b][1,4]oxazine-7,4-diyl))bis(propane-1,2-diyl))bis(azanediyl))bis(3-hydroxypropanoic acid)]
–	4.81	7.80	C[C@@H](O)[C@H](NCCN1C(=O)COc2cc(-c3cccc(-c4cccc(-c5ccc6c(c5)OCC(=O)N6CCN[C@H](C(=O)O)[C@@H](C)O)c4Cl)c3Cl)ccc21)C(=O)O [Compound 545]
–	10.5	10.60	O=C1COc2cc(-c3cccc(-c4cccc(-c5ccc6c(c5)OCC(=O)N6C[C@@H]5CC6(CC6)CN5)c4Cl)c3Cl)ccc2N1C[C@@H]1CC2(CC2)CN1 [Compound 540]
–	76.9	1.60	O=C1COc2cc(-c3cccc(-c4cccc(-c5ccc6c(c5)OCC(=O)N6C[C@@H]5CC(F)(F)CN5)c4Cl)c3Cl)ccc2N1C[C@@H]1CC(F)(F)CN1 [Compound 530]
–	8.95	5.30	O=C(O)[C@H](CO)NCCN1C(=O)COc2cc(-c3cccc(-c4cccc(-c5cc(F)c6c(c5)OCC(=O)N6CCN[C@@H](CO)C(=O)O)c4Cl)c3Cl)cc(F)c21 [Compound 561]

The next lines start with the molecule.

SMILES	EC50 [1] [nM]	IC50 (PD-1/PD-L1) [nM]	Internalization (PD-L1/CHO-K1 cells) [%]
O=C(O)C[C@H](CO)NCCN1C(=O)COc2cc(-c3cccc(-c4cccc(-c5ccc6c(c5)OCC(=O)N6CCN[C@@H](CO)CC(=O)O)c4Cl)c3Cl)ccc21 [Compound 528]	175	5.04	13.30
O=C1COc2cc(-c3cccc(-c4cccc(-c5ccc6c(c5)OCC(=O)N6C[C@@H]5CCCN5)c4Cl)c3Cl)ccc2N1C[C@@H]1CCCN1 [Compound 411, 7,7′-(2,2′-dichloro-[1,1′-biphenyl]-3,3′-diyl)bis(4-(((S)-pyrrolidin-2-yl)methyl)-2H-benzo[b][1,4]oxazin-3(4H)-one)]	357	6.14	66.90
O=C(O)CC(O)CNCCN1C(=O)COc2cc(-c3cccc(-c4cccc(-c5ccc6c(c5)OCC(=O)N6CCNCC(O)CC(=O)O)c4Cl)c3Cl)ccc21 (centres unmarked) [Compound 470]	–	2.28	20.90
O=C1CC(CN2C(=O)COc3cc(-c4cccc(-c5cccc(-c6ccc7c(c6)OCC(=O)N7CC6CNC(=O)C6)c5Cl)c4Cl)ccc32)CN1 (centres unmarked) [Compound 373]	–	3.79	3.20
O=C1CC[C@@H](CN2C(=O)COc3cc(-c4cccc(-c5cccc(-c6ccc7c(c6)OCC(=O)N7C[C@@H]6CCC(=O)N6)c5Cl)c4Cl)ccc32)N1 [Compound 338]	–	1.46	6.80
O=C1COc2cc(-c3cccc(-c4cccc(-c5ccc6c(c5)OCC(=O)N6C[C@@H]5C[C@@H](O)CN5)c4Cl)c3Cl)ccc2N1C[C@@H]1C[C@@H](O)CN1 [Compound 472]	359	5.27	17.20
O=C(O)CCNCCN1C(=O)COc2cc(-c3cccc(-c4cccc(-c5ccc6c(c5)OCC(=O)N6CCNCCC(=O)O)c4Cl)c3Cl)ccc21 [Compound 468]	–	4.9	20.90
O=C(O)[C@@H]1C[C@@H](O)CN1CCN1C(=O)COc2cc(-c3cccc(-c4cccc(-c5ccc6c(c5)OCC(=O)N6CCN5C[C@H](O)C[C@H]5C(=O)O)c4Cl)c3Cl)ccc21 [Compound 454]	326	1.42	5.20

Source: US20250340529A1, “Heterocyclic Compounds as Immunomodulators of PD-L1 Interactions” (Ascletis BioScience Co., Ltd, priority 2021, published 2025)
